Values of other authors, collected in patent US11376246B2, “Inhibiting mutant IDH-1” (FORMA Therapeutics, Inc., priority 2018, dated 2022).

Details: Literature reported data; cited from earlier work

| SMILES | BBB+ |
| --- | --- |
| Cc1cc([C@H](C)Nc2nccc(N3C(=O)OC[C@@H]3C(C)C)n2)ncc1-c1ccnc(C(F)(F)F)c1 [IDH305] | Yes |
| Cc1cc(-c2cnc([C@H](C)Nc3nccc(N4C(=O)OC[C@@H]4C(C)C)n3)nc2)ccc1F [IDH889] | Yes |
